Data as given in patent publication US10273333B2, “Substituted polyesters by thiol-ene modification: rapid diversification for therapeutic protein stabilization” (THE REGENTS OF THE UNIVERSITY OF CALIFORNIA, priority 2014, dated 2019).

Key:
[1] = target: T1, granulocyte colony-stimulating factor (G-CSF) (Homo sapiens, UniProt P09919); assay: G-CSF stabilization studies; G-CSF bioactivity by NFS-60 cell proliferation (CellTiter-Blue); format: cell-based; conditions: 60° C. for 30 minutes; small molecules at the concentration of stabilizing units in pCL-zwitterion80, Tween 80 and polymers at 100 weight equivalents; FIG. 74
T1 construct: host or cells: E. coli
T1 sequence (P09919 31-204 isoform P09919-2 limits assumed): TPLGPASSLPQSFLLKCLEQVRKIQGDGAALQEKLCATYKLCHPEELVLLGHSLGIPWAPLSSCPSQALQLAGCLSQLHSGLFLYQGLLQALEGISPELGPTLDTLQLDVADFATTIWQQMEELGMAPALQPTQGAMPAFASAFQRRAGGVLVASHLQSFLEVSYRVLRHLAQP
Procedure: G-CSF Stabilization Studies: G-CSF samples (25 μL) were prepared in 10 mM acetate buffer, pH 4.0 at 1 μg/mL with 100 equivalents polymer additive by weight. Samples were stored at 4° C. for 90 minutes or 60° C. for 30 minutes and then were diluted with cold RPMI-1640 medium+10% FBS (735 μL). The samples were then further diluted with RPMI-1640+10% FBS to a final concentration of 1 ng/mL. G-CSF bioactivity was then assayed in a NFS-60 mouse myelogenous leukemia lymphoblast cell line. NFS-60 cells were cultured in RPMI-1640 medium supplemented with 10% FBS and 2 ng/mL interleukin-3 (IL-3) at 37° C./5% CO2. NFS-60 cells were passaged at least three times before used in proliferation experiments. Prior to treating NFS-60 cells with G-CSF samples, NFS-60 cells were collected and resuspended in RPMI-1640 with 10% FBS (without additional growth factors). Cells were plated in the internal wells of a 96 well plate at a density of 20,000 cells per well in 50 μL of medium. G-CSF solution (50 μL) was then added to provide a final concentration of 0.5 ng/mL and total well volume of 100 μL. Following 48 h incubation at 37° C./5% CO2, CellTiter-Blue viability assay was performed to measure cell proliferation. All experimental groups were normalized to the control of the control of media alone without G-CSF addition. All p values were calculated using the independent Student's t test assuming unequal variances.
Next the ability of the polymer to protect protein activity against environmental stressors was assessed. The therapeutic protein granulocyte colony-stimulating factor (G-CSF) was selected to compare excipient efficacy due to its clinical importance. […] G-CSF is highly unstable at physiological pH and is therefore stored at pH 4.0; still at this pH the protein readily degrades upon storage or subjection to heat (Krishnan et al., 2002). […] Protein activity was determined by measuring cell proliferation in murine myeloid leukemia NFS-60 cells, which is enhanced in the presence of GCSF, and compared to the proliferation of freshly diluted protein (Shirafuji et al., 1989).

[2] = target: lysozyme (Gallus gallus, UniProt P00698); assay: Lysozyme stabilization against heat stress (90° C., 20 minutes), EnzChek lysozyme activity assay; format: biochemical; conditions: heated 90° C. for 20 minutes; 5 to 25 wt eq. excipient; FIG. 12a
Procedure: The ability of these biodegradable trehalose polymers to stabilize proteins was confirmed through heat and lyophilization stress assays. […] Therefore, these proteins were also selected to test the biodegradable trehalose polymers. First, lysozyme was stressed by heating to 90° C. for 20 minutes.
[…] Samples were further diluted to a concentration of 0.021 mg/mL (1 kU/mL) and […] aliquots were prepared in 0.5 mL LoBind Eppendorf tubes. Each aliquot was heated to 90° C. for 20 minutes at 500 rpm, then cooled to 4° C. and centrifuged for 1 minute at 10,000 rpm. Samples were stored at 4° C. until activity was evaluated all together using the EnzChek® lysozyme activity assay.
Aliquots containing 20 μL of lysozyme-glycopolymer solution were diluted to 100 μL with PBS pH 7.4. 50 μL of the resulting solution was removed and incubated with 50 μL of Micrococcus luteus labeled with FITC (1 mg/mL) at 37° C. for 30 minutes in a 96-well plate. The resulting fluorescence was measured (abs 480 nm/em 530 nm) and quantified relative to a known concentration curve. Statistics to determine significance were calculated using the Students t test; % confidence as +/−=t(standard deviation)/(number of trials)½ with p<1−% confidence/100.

[3] = Differential scanning calorimetry (DSC): melting and crystallization enthalpy of water; format: physicochemical; conditions: 1 mol % of the stabilizing unit; for ΔHc (change in crystallization enthalpy of water) / ΔHm (change in melting enthalpy of water): relative to water; for Hc (crystallization enthalpy of water) / Hm (melting enthalpy of water): second heat/cool run, in J/g (unit assumed)
Procedure: Solutions of trehalose, betaine, pCL-trehalose80, and pCL-zwitterion80 were made at 1 mol % of the stabilizing unit (trehalose or betaine) and analyzed by DSC (TA Instruments Q2000). Runs were carried out using two heat/cool cycles from −40° C. to 40° C. at […] and values were taken from the second run.

[4] = system: β-galactosidase (β-Gal); conditions: three 12-hour desiccation (lyophilization) cycles; excipient; FIG. 12b
Procedure: The stabilization of β-Gal against lyophilization stress was also measured. […] The activity of β-Gal was determined by reaction with ortho-nitrophenol galactose (ONPG). When incubated with β-Gal, release of the yellow-colored o-nitrophenol from ONPG can be monitored at 405 nm.
The activity of β-Gal was determined by reaction with ortho-nitrophenol galactose (ONPG). When incubated with β-Gal, release of the yellow-colored o-nitrophenol from ONPG can be monitored at 405 nm.
Lyophilization studies with β-galactosidase were carried out as previously described; 8-Gal was subjected to three 12 hour lyophliization cycles before dilution. Activity was assayed by monitoring the hydrolysis of o-nitrophenol galactose (ONPG) at 405 nm.

Sequence of lysozyme (P00698 19-147): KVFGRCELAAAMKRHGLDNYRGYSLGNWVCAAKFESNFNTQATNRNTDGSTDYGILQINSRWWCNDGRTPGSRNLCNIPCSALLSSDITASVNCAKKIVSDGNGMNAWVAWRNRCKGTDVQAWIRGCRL

| Compound | G-CSF activity / cell proliferation, comparison with small-molecule excipients [1] | lysozyme activity retained (of native activity) [2] | ΔHc (change in crystallization enthalpy of water) [3] | ΔHm (change in melting enthalpy of water) [3] | Hc (crystallization enthalpy of water) [3] | Hm (melting enthalpy of water) [3] | β-Gal activity maintained (of native activity) [4] |
| --- | --- | --- | --- | --- | --- | --- | --- |
| OC[C@H]1O[C@@](CO)(O[C@H]2O[C@H](CO)[C@@H](O)[C@H](O)[C@H]2O)[C@@H](O)[C@@H]1O [sucrose] | little stabilizing effect | – | – | – | – | – | – |
| OC[C@H]1O[C@H](O[C@H]2O[C@H](CO)[C@@H](O)[C@H](O)[C@H]2O)[C@H](O)[C@@H](O)[C@@H]1O [trehalose] | – | not significantly different from the negative control | 22.3 | −47.4 | −229.9 | 249.1 | up to 67% |
| CCCCCCCC/C=C\CCCCCCCC(=O)OCCOCC(OCCO)C1OCC(OCCO)C1OCCO (stereo not shown) [Tween 80, polysorbate 80] | maintained high protein activity | – | – | – | – | – | – |
| C[N+](C)(C)CC(=O)O [betaine] | little stabilizing effect | – | 73.2 | −98.4 | −179 | 198.1 | – |
